Design: species or system Normal adult volunteers
Conditions: in vivo
Description: Normal adult volunteers consumed 1 g of tryptophan; with or without 10 g of glucose; blood samples were assayed for tryptophan, LNAA, and their ratio after various intervals. Control subjects received only the tryptophan. The results are shown in Table I, 1 hour after administration.

OC[C@H]1OC(O)[C@H](O)[C@@H](O)[C@@H]1O (stereo partly shown) [glucose]
increase of the plasma tryptophan/LNAA ratio by glucose: 40-50%

Source: EP0088621A2, “Compositions for use in accelerating onset of sleep” (MASSACHUSETTS INSTITUTE OF TECHNOLOGY, priority 1982, dated 1983)
